In ChEMBL document CHEMBL5725945, “Autotaxin inhibitors” (2018):

Target: Autotaxin (Homo sapiens, UniProt Q13822)
Test: Quanta Red Assay: Measuring ATX activity using an enzyme coupled Quanta Red assay (Thermo Scientific Pierce Protein Research Products, Product #15159) was determined as follows. 8 μL human recombinant ATX (final concentration 0.8 μg/mL) in 1× Assay buffer containing 50 mM Tris-HCl (pH 8.0), 5 mM CaCl2 was added to an opaque black flat-bottom 384-well plate (Corning, #3575) containing 2 μL test compound in 40% DMSO (4% final DMSO concentration). 10 μL of Quanta Red, Horseradish peroxidase (HRP), Choline Oxidase (CO), Rac-1-Palmitoyl-glycero-3-phosphocholine solution (final concentration 1:250 for Quanta Red, 0.5units/ml HRP, 0.5units/ml CO, 15 μM Rac-1-Palmitoyl-glycero-3-phosphocholine) in 1× assay buffer (as described previously) was added to each well to start the reaction and the plate was incubated at room temperature for 2 hours. The reaction was stopped after 2 hours with a 20 μL addition of Quanta Red Stop solution (1:20 dilution in distilled water). The above-described mixture with DMSO alone was used as a positive control whereas that with DMSO alone without ATX was taken as a negative control. For each test compound, ten concentrations were measured covering a range of 6.1 nM to 120 μM to determine IC50 values. The top concentration was decreased to 1.2 μM when a test compound's IC50 value was evaluated in low nanomolar range. Fluorescence was determined in a BMG Labtech Pherastar plus plate reader (λ emission=540 nm, λ excitation=590 nm). Data were analysed using Excel fit software.

Point of comparison: `O=C(Nc1cc(CCc2ccc(Cl)cc2)[nH]n1)C1CC(=O)N(c2ccc(CN3CCOCC3)cc2)C1` (stereo not drawn), IC50 5 nM. Against it:
- CCCN(CC)Cc1ccc(N2CC(C(=O)Nc3nnc(CCc4ccc(Cl)cc4)s3)CC2=O)cc1 (stereo not drawn) — within 1.5-fold, 4 nM
- O=C1CN(Cc2ccc(N3C[C@H](NC(=O)c4nnc(CCc5ccc(Cl)cc5)s4)CC3=O)cc2)CCN1 — 1.6-fold higher, 8 nM
- CN1CCN(Cc2ccc(N3C[C@H](NC(=O)c4nnc(CCc5ccc(Cl)cc5)s4)CC3=O)cc2)CC1 — 25-fold higher, 124 nM
- O=C(Nc1nnc(CCC2CCOCC2)s1)C1CC(=O)N(c2ccc(CN3CCOCC3)cc2)C1 (stereo not drawn) — 72-fold higher, 358 nM
- CCC(C)CCc1nnc(NC(=O)C2CC(=O)N(c3ccc(CN4CCOCC4)cc3)C2)s1 (stereo not drawn) — 2.2-fold higher, 11 nM
- O=C(Nc1nnc(CCC2CCCC2)s1)C1CC(=O)N(c2ccc(CN3CCOCC3)cc2)C1 (stereo not drawn) — 1.7-fold lower, 3 nM
- CCCN(C)Cc1ccc(N2CC(C(=O)Nc3nnc(CCc4ccc(Cl)cc4)s3)CC2=O)cc1 (stereo not drawn) — 1.7-fold lower, 3 nM
